Data on nine compounds can be found in ChEMBL document CHEMBL1240496, “Development of potent glucagon-like peptide-1 agonists with high enzyme stability via introduction of multiple lactam bridges” (J Med Chem, 2010).

Series [1] concerns NEP 24.11. Kind of series: Chemical stability of the compound assessed as half life up to 24 hrs by HPLC analysis in presence of human recombinant NEP 24.11. It counts as physicochemical.
The test system of series [2] is DPP4. Kind of series: Chemical stability of the compound assessed as half life up to 24 hrs by HPLC analysis in presence of human recombinant DPP4. It counts as physicochemical.
For series [3], the target named is T1, Glucagon-like peptide 1 receptor (Homo sapiens, UniProt P43220). The series is described as follows: Activation of human GLP1 receptor expressed in HEK293 cells assessed as increase in cAMP accumulation. The format is functional, cell-based.
Series [4] deals with T1, Glucagon-like peptide 1 receptor. The series is described as follows: Activation of human GLP1 receptor expressed in HEK293 cells assessed as increase in cAMP accumulation relative to GLP1. The format is functional, cell-based.

Bridge positions count the residues as written; N and C are the ends. Peptide text beside a SMILES is read from it.

T1 sequence (P43220 whole entry): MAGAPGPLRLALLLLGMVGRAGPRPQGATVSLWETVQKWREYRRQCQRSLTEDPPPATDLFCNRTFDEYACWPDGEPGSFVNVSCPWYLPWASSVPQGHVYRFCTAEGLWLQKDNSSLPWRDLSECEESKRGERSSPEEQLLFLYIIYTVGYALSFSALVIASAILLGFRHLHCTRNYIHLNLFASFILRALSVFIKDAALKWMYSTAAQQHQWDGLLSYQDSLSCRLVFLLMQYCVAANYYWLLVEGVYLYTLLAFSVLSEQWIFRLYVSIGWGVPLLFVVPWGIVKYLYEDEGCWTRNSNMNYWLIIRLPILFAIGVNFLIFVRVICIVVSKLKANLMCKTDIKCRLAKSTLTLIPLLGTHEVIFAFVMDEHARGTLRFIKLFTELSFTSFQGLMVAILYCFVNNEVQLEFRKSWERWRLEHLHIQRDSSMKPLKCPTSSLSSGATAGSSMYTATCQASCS

With `CC[C@H](C)[C@H](NC(=O)[C@H](Cc1ccccc1)NC(=O)[C@H](CCC(=O)O)NC(=O)[C@@H]1CCCCNC(=O)CC[C@H](NC(=O)[C@H](CCC(=O)O)NC(=O)[C@H](CC(C)C)NC(=O)[C@H](Cc2ccc(O)cc2)NC(=O)[C@H](CO)NC(=O)[C@H](CO)NC(=O)[C@@H](NC(=O)[C@H](CC(=O)O)NC(=O)[C@H](CO)NC(=O)[C@@H](NC(=O)[C@H](Cc2ccccc2)NC(=O)[C@@H](NC(=O)CNC(=O)[C@H](CCC(=O)O)NC(=O)[C@H](C)NC(=O)[C@@H](N)Cc2cnc[nH]2)[C@@H](C)O)[C@@H](C)O)C(C)C)C(=O)N[C@@H](CCC(N)=O)C(=O)N[C@@H](C)C(=O)N[C@@H](C)C(=O)N1)C(=O)N[C@@H](C)C(=O)N[C@@H](Cc1c[nH]c2ccccc12)C(=O)N[C@@H](CC(C)C)C(=O)N[C@H](C(=O)N[C@@H](CCCCN)C(=O)NCC(=O)N[C@@H](CCCN=C(N)N)C(=O)O)C(C)C`, the half-life was found to be 6.9 h in series [1] and 2.9 h in series [2]. In addition, the EC50 in series [3] (read-out: EC50) is 2.8 nM; in series [3] (read-out: pEC50 (converted)), 5.01 nM.
As to `CC[C@H](C)[C@H](NC(=O)[C@H](Cc1ccccc1)NC(=O)[C@H](CCC(=O)O)NC(=O)[C@H](CCCCN)NC(=O)[C@H](C)NC(=O)[C@H](C)NC(=O)[C@H](CCC(N)=O)NC(=O)[C@@H]1CCCCNC(=O)CC[C@H](NC(=O)[C@H](CO)NC(=O)[C@@H](NC(=O)[C@H](CC(=O)O)NC(=O)[C@H](CO)NC(=O)[C@@H](NC(=O)[C@H](Cc2ccccc2)NC(=O)[C@@H](NC(=O)CNC(=O)[C@H](CCC(=O)O)NC(=O)[C@H](C)NC(=O)[C@@H](N)Cc2cnc[nH]2)[C@@H](C)O)[C@@H](C)O)C(C)C)C(=O)N[C@@H](Cc2ccc(O)cc2)C(=O)N[C@@H](CC(C)C)C(=O)N[C@@H](CCC(=O)O)C(=O)N1)C(=O)N[C@H]1CCC(=O)NCCCC[C@@H](C(=O)NCC(=O)N[C@@H](CCCN=C(N)N)C(N)=O)NC(=O)[C@H](C(C)C)NC(=O)[C@H](CC(C)C)NC(=O)[C@H](Cc2c[nH]c3ccccc23)NC1=O`, the half-life in series [1] is more than 96 h; in series [2], 3.6 h. The EC50 in series [3] (read-out: EC50) turned out to be 1.9 nM.
Regarding `CC[C@H](C)[C@H](NC(=O)[C@H](Cc1ccccc1)NC(=O)[C@H](CCC(=O)O)NC(=O)[C@@H]1CCCCNC(=O)CC[C@H](NC(=O)[C@H](CCC(=O)O)NC(=O)[C@H](CC(C)C)NC(=O)[C@H](Cc2ccc(O)cc2)NC(=O)[C@H](CO)NC(=O)[C@H](CO)NC(=O)[C@@H](NC(=O)[C@H](CC(=O)O)NC(=O)[C@H](CO)NC(=O)[C@@H](NC(=O)[C@H](Cc2ccccc2)NC(=O)[C@@H](NC(=O)CNC(=O)[C@H](CCC(=O)O)NC(=O)[C@H](C)NC(=O)[C@@H](N)Cc2cnc[nH]2)[C@@H](C)O)[C@@H](C)O)C(C)C)C(=O)N[C@@H](CCC(N)=O)C(=O)N[C@@H](C)C(=O)N[C@@H](C)C(=O)N1)C(=O)N[C@@H](C)C(=O)N[C@@H](Cc1c[nH]c2ccccc12)C(=O)N[C@@H](CC(C)C)C(=O)N[C@H](C(=O)N[C@@H](CCCCN)C(=O)NCC(=O)N[C@@H](CCCNC(=N)N)C(=O)O)C(C)C`, the Activity in series [4] was 160%.
For `CC[C@H](C)[C@H](NC(=O)[C@H](Cc1ccccc1)NC(=O)[C@H](CCC(=O)O)NC(=O)[C@H](CCCCN)NC(=O)[C@H](C)NC(=O)[C@H](C)NC(=O)[C@H](CCC(N)=O)NC(=O)[C@@H]1CCCCNC(=O)CC[C@H](NC(=O)[C@H](CO)NC(=O)[C@@H](NC(=O)[C@H](CC(=O)O)NC(=O)[C@H](CO)NC(=O)[C@@H](NC(=O)[C@H](Cc2ccccc2)NC(=O)[C@@H](NC(=O)CNC(=O)[C@H](CCC(=O)O)NC(=O)[C@H](C)NC(=O)[C@@H](N)Cc2cnc[nH]2)[C@@H](C)O)[C@@H](C)O)C(C)C)C(=O)N[C@@H](Cc2ccc(O)cc2)C(=O)N[C@@H](CC(C)C)C(=O)N[C@@H](CCC(=O)O)C(=O)N1)C(=O)N[C@H]1CCC(=O)NCCCC[C@@H](C(=O)NCC(=O)N[C@@H](CCCNC(=N)N)C(N)=O)NC(=O)[C@H](C(C)C)NC(=O)[C@H](CC(C)C)NC(=O)[C@H](Cc2c[nH]c3ccccc23)NC1=O`, the Activity in series [4] is 240%.
On to `CC[C@H](C)[C@H](NC(=O)[C@H](Cc1ccccc1)NC(=O)[C@H](CCC(=O)O)NC(=O)[C@@H]1CCCCNC(=O)CC[C@H](NC(=O)[C@H](CCC(=O)O)NC(=O)[C@@H]2CCCCNC(=O)CC[C@H](NC(=O)[C@H](CC(=O)O)NC(=O)[C@H](CO)NC(=O)[C@@H](NC(=O)[C@H](Cc3ccccc3)NC(=O)[C@@H](NC(=O)CNC(=O)[C@H](CCC(=O)O)NC(=O)[C@H](C)NC(=O)[C@@H](N)Cc3cnc[nH]3)[C@@H](C)O)[C@@H](C)O)C(=O)N[C@@H](CO)C(=O)N[C@@H](CO)C(=O)N[C@@H](Cc3ccc(O)cc3)C(=O)N2)C(=O)N[C@@H](CCC(N)=O)C(=O)N[C@@H](C)C(=O)N[C@@H](C)C(=O)N1)C(=O)N[C@H]1CCC(=O)NCCCC[C@@H](C(=O)NCC(=O)N[C@@H](CCCN=C(N)N)C(N)=O)NC(=O)[C@H](C(C)C)NC(=O)[C@H](CC(C)C)NC(=O)[C@H](Cc2c[nH]c3ccccc23)NC1=O` (H-HAEGTFTSDESSYKEEQAAKEFIEWLVKGR-NH2; lactam 10-14, 16-20, 24-28), for which the half-life is more than 96 h in series [1] and more than 24 h in series [2]. Further, the EC50 in series [3] (read-out: EC50) is 1.8 nM.
In the case of `CC[C@H](C)[C@H](NC(=O)[C@H](Cc1ccccc1)NC(=O)[C@H](CCC(=O)O)NC(=O)[C@@H]1CCCCNC(=O)CC[C@H](NC(=O)[C@H](CCC(=O)O)NC(=O)[C@@H]2CCCCNC(=O)CC[C@H](NC(=O)[C@H](CC(=O)O)NC(=O)[C@H](CO)NC(=O)[C@@H](NC(=O)[C@H](Cc3ccccc3)NC(=O)[C@@H](NC(=O)CNC(=O)[C@H](CCC(=O)O)NC(=O)[C@H](C)NC(=O)[C@@H](N)Cc3cnc[nH]3)[C@@H](C)O)[C@@H](C)O)C(=O)N[C@@H](CO)C(=O)N[C@@H](CO)C(=O)N[C@@H](Cc3ccc(O)cc3)C(=O)N2)C(=O)N[C@@H](CCC(N)=O)C(=O)N[C@@H](C)C(=O)N[C@@H](C)C(=O)N1)C(=O)N[C@H]1CCC(=O)NCCCC[C@@H](C(=O)NCC(=O)N[C@@H](CCCNC(=N)N)C(N)=O)NC(=O)[C@H](C(C)C)NC(=O)[C@H](CC(C)C)NC(=O)[C@H](Cc2c[nH]c3ccccc23)NC1=O` (H-HAEGTFTSDESSYKEEQAAKEFIEWLVKGR-NH2; lactam 10-14, 16-20, 24-28), the Activity in series [4] is 260%.
Consider `CC[C@H](C)[C@H](NC(=O)[C@H](Cc1ccccc1)NC(=O)[C@H](CCC(=O)O)NC(=O)[C@H](CCCCN)NC(=O)[C@H](C)NC(=O)[C@H](C)NC(=O)[C@H](CCC(N)=O)NC(=O)CNC(=O)[C@H](CCC(=O)O)NC(=O)[C@@H]1CCCCNC(=O)CC[C@H](NC(=O)[C@H](CC(=O)O)NC(=O)[C@H](CO)NC(=O)[C@@H](NC(=O)[C@H](Cc2ccccc2)NC(=O)[C@@H](NC(=O)CNC(=O)[C@H](CCC(=O)O)NC(=O)[C@H](C)NC(=O)[C@@H](N)Cc2cnc[nH]2)[C@@H](C)O)[C@@H](C)O)C(=O)N[C@@H](CO)C(=O)N[C@@H](CO)C(=O)N[C@@H](Cc2ccc(O)cc2)C(=O)N1)C(=O)N[C@H]1CCC(=O)NCCCC[C@@H](C(=O)NCC(=O)N[C@@H](CCCN=C(N)N)C(N)=O)NC(=O)[C@H](C(C)C)NC(=O)[C@H](CC(C)C)NC(=O)[C@H](Cc2c[nH]c3ccccc23)NC1=O` (H-HAEGTFTSDESSYKEGQAAKEFIEWLVKGR-NH2; lactam 10-14, 24-28), for which the half-life in series [1] is 6.6 h; in series [2] it was 3.1 h. Further, the EC50 in series [3] (read-out: EC50) is 3.3 nM.
Regarding `CC[C@H](C)[C@H](NC(=O)[C@H](Cc1ccccc1)NC(=O)[C@H](CCC(=O)O)NC(=O)[C@H](CCCCN)NC(=O)[C@H](C)NC(=O)[C@H](C)NC(=O)[C@H](CCC(N)=O)NC(=O)CNC(=O)[C@H](CCC(=O)O)NC(=O)[C@@H]1CCCCNC(=O)CC[C@H](NC(=O)[C@H](CC(=O)O)NC(=O)[C@H](CO)NC(=O)[C@@H](NC(=O)[C@H](Cc2ccccc2)NC(=O)[C@@H](NC(=O)CNC(=O)[C@H](CCC(=O)O)NC(=O)[C@H](C)NC(=O)[C@@H](N)Cc2cnc[nH]2)[C@@H](C)O)[C@@H](C)O)C(=O)N[C@@H](CO)C(=O)N[C@@H](CO)C(=O)N[C@@H](Cc2ccc(O)cc2)C(=O)N1)C(=O)N[C@H]1CCC(=O)NCCCC[C@@H](C(=O)NCC(=O)N[C@@H](CCCNC(=N)N)C(N)=O)NC(=O)[C@H](C(C)C)NC(=O)[C@H](CC(C)C)NC(=O)[C@H](Cc2c[nH]c3ccccc23)NC1=O` (H-HAEGTFTSDESSYKEGQAAKEFIEWLVKGR-NH2; lactam 10-14, 24-28), the Activity in series [4] worked out at 140%.
As for `CC[C@H](C)[C@H](NC(=O)[C@H](Cc1ccccc1)NC(=O)[C@H](CCC(=O)O)NC(=O)[C@H](CCCCN)NC(=O)[C@H](C)NC(=O)[C@H](C)NC(=O)[C@H](CCC(N)=O)NC(=O)CNC(=O)[C@H](CC(C)C)NC(=O)[C@H](Cc1ccc(O)cc1)NC(=O)[C@H](CO)NC(=O)[C@H](CO)NC(=O)[C@@H](NC(=O)[C@H](CC(=O)O)NC(=O)[C@H](CO)NC(=O)[C@@H](NC(=O)[C@H](Cc1ccccc1)NC(=O)[C@@H](NC(=O)CNC(=O)[C@H](CCC(=O)O)NC(=O)[C@H](C)NC(=O)[C@@H](N)Cc1cnc[nH]1)[C@@H](C)O)[C@@H](C)O)C(C)C)C(=O)N[C@@H](C)C(=O)N[C@@H](Cc1c[nH]c2ccccc12)C(=O)N[C@@H](CC(C)C)C(=O)N[C@H](C(=O)N[C@@H](CCCCN)C(=O)NCC(=O)N[C@@H](CCCNC(=N)N)C(=O)O)C(C)C` [GLP-1] (H-HAEGTFTSDVSSYLGQAAKEFIAWLVKGR-OH), the half-life amounted to 4.6 h in series [1] and 2 h in series [2].
